Values quoted from earlier work, collected in patent US8026262B2, “Chemical compounds” (GlaxoSmithKline LLC, priority 2006, dated 2011).

Key:
[1] = test system: ovariectomized (OVX) rats

Molecule	periosteal mineral apposition rate of the femur [1]	BMD of femoral cortical bone ([1]; 2 month period)	biomechanical strength of femoral cortical bone ([1]; 2 month period)	bone mineral density (BMD) of femur (ORX rats; 4 weeks, as markedly as DHT)	levator ani muscle weight (ORX rats; 4 weeks, as markedly as DHT)	prostate weight (ORX rats; versus eugonadal rats, at any doses tested)
CN(C)[C@H]1C[C@@H](C(C)(C)CO)Nc2ccc([N+](=O)[O-])cc21 [Example S-40503]	increase	significantly increased	significantly increased	increased	increased	not elevated
estrogen			did not			
